The source of these data is patent publication US20120149026A1, “INSULIN RESISTANCE MARKER” (SHIMADZU CORPORATION, priority 2009, published 2012).

Holding throughout (format): cell-based, mouse
One experiment has as its system proepithelin (aa297-309). In words: Expression variation analysis of proepithelin protein by NBS method in insulin resistance-induced adipocytes. The settings on record: matured 3T3-L1 adipocytes; 4 ng/mL TNFα for four days or 20 nM dexamethazone for eight days; p-value <0.05. As to the method: Mouse 3T3-L1 cells (ATCC No. CCL-92.1.) were added with Dulbecco's modified Eagle's medium—low glucose (Wako Pure Chemical Industries, Ltd.), 10% bovine serum (GIBCO BRL), and a penicillin/streptomycin solution (GIBCO BRL), and cultured at 37° C. in 5% carbon dioxide.
After reaching confluent, the cells were further cultured for two days. Then the medium was replaced by a differentiation inducing medium. As the differentiation inducing medium, Dulbecco's modified Eagle's medium—high glucose (Wako Pure Chemical Industries, Ltd.) added with 10% fetal bovine serum, a penicillin/streptomycin solution (GIBCO BRL), 0.5 mM 1-methyl-3-isobutylxanthine, 1 μM dexamethazone, and 5 μg/mL insulin was used.
After three days, the medium was replaced by Dulbecco's modified Eagle's medium—high glucose (Wako Pure Chemical Industries, Ltd.), 10% fetal bovine serum, a penicillin/streptomycin solution (GIBCO BRL), and 5 μg/mL insulin, and cultured for two days. […]
For the obtained digests, a treatment was conducted according to the protocol of the NBS labeling kit, and the NBS-labeled peptide was concentrated. […] Comparative quantification analysis between 12C-NBS-labeled peptide and 13C-NBS-labeled peptide was conducted from the results obtained by automatic analysis of MALDI-TOF MS (AXIMA-CFR Plus; SHIMADZU CORPORATION) by using pair peak analyzing software (TWIP). […]

Another experiment concerns proepithelin protein. In words: Analysis of proepithelin protein by Western blotting in insulin resistance-induced adipocytes. The settings on record: matured 3T3-L1 adipocytes; for expression amount of proepithelin protein relative to GADPH, increase versus control: 4 ng/mL TNFα for four days or 20 nM dexamethazone for eight days, p-value <0.05. As to the method: Using the matured adipocyte at the eighth or later day after the differentiation inducing treatment, the cells were cultured in an adipocyte maintenance medium added with 20 nM dexamethazone for eight days to induce insulin resistance, and an adipocyte in which insulin resistance was induced by dexamethazone was obtained. On the other hand, using the matured adipocyte at the eighth or later day after the differentiation inducing treatment, the cells were cultured for four days in an adipocyte maintenance medium added with 4 ng/mL TNFα to induce insulin resistance, and an adipocyte in which insulin resistance was induced by TNFα was obtained.
A matured adipocyte in which insulin resistance was induced by the method of Reference Example 2 was solubilized in a TNE buffer (1% (w/w) Nonidet P-40, 150 mM sodium chloride, 20 mM Tris-hydrochloride (pH 7.4), 2 mM EDTA, 10 μg/mL leupeptin, 10 μg/mL aprotinine, 5 mM mercaptoethanol, 1 mM: PMSF, 1 mM Na3VO4, 10 μM sodium molybdate, and 50 mM sodium fluoride), and a protein was extracted. The extracted protein was separated by SDS-polyacrylamide gel electrophoresis (SDS-PAGE), and then transferred to a polyvinylidene fluoride (PVDF) membrane or a nitrocellulose membrane. A goat anti-proepithelin antibody (R&D Systems) was used as a primary antibody, a rabbit anti-goat IgG HRP-labeled antibody (ZYMED) was used as a secondary antibody, and ECL Blotting Detection Reagents (GE Healthcare) were used for detection of an HRP-labeled antibody.
The result obtained in this example (analytical result of a proepithelin protein by the Western blotting method) is shown in FIG. 2. In FIG. 2A, the vertical axis represents a relative value of an expression amount of a proepithelin protein, relative to an expression amount of a house keeping protein GADPH, and for each of a control (Control), the adipocyte in which insulin resistance was induced by TNFα (TNFα), and the adipocyte in which insulin resistance was induced by dexamethazone (Dex), the relative value is shown (mean value±standard deviation (mean±S.D.), n=4, p-value: **<0.05). […]
In general terms: In western blotting, separated proteins are transferred to a membrane and probed.

The next experiment concerns pAkt-Ser473. In words: Effect of proepithelin protein on insulin signaling (Akt phosphorylation, Western blotting). The conditions noted are these: matured 3T3-L1 adipocytes; proepithelin 10, 50, 100, 200 nM, cultured for 30 minutes, with or without 100 nM insulin; FIG. 6. As to the method:
A matured adipocyte prepared according to the method of Reference Example 1 was added with 100 nM insulin and a proepithelin protein (AdipoGen, Inc.) and cultured for 30 minutes, or added with 100 nM insulin without addition of proepithelin protein and cultured for 30 minutes to prepare an adipocyte (+100 nM Insulin) stimulated by insulin. When the proepithelin protein was added, concentrations of the proepithelin protein were 10 nM, 50 nM, 100 nM, and 200 nM.
The obtained adipocyte stimulated by insulin was solubilized in an RIPA buffer {1% (W/w) Triton X-100, 1% sodium deoxycholate, 0.1% sodium dodecylsulfate, 150 mM sodium chloride, 20 mM Tris-hydrochloride (pH7.4), 2 mM EDTA, 10 μg/mL leupeptin, 10 μg/mL aprotinin, 5 mM mercaptoethanol, 1 mM PMSF, 1 mM Na3VO4, 10 μM sodium molybdate, 50 mM sodium fluoride}, and proteins were extracted.
The extracted proteins were subjected to the Western blotting method. Concretely, following separation by SDS-polyacrylamide gel electrophoresis (SOS-PAGE), the protein was transferred to a polyvinylidene fluoride (PVDF) membrane or a nitrocellulose membrane. […]

A further experiment deals with phosphorylated Akt. The experiment is described as follows: Insulin signaling-suppressing action by constant presence of proepithelin protein (Akt phosphorylation, Western blotting). The settings on record: matured 3T3-L1 adipocytes; proepithelin 50, 100, 200 nM for 6 hours, then 100 nM insulin for 30 minutes; FIG. 7. As to the method:
A matured adipocyte prepared according to the method of Reference Example 1 was added with a proepithelin protein (AdipoGen, Inc.) and incubated for 6 hours, and then added with 100 nM insulin and cultured for 30 minutes, or added with 100 nM insulin without addition of a proepithelin protein, and cultured for 30 minutes, to prepare an adipocytes stimulated by insulin (+100 nM Insulin). When the proepithelin protein was added, concentrations of the proepithelin protein were set at 50 nM, 100 nM, and 200 nM.
A matured adipocyte prepared according to the method of Reference Example 1 was added with a proepithelin protein (AdipoGen, Inc.) and cultured for 6 hours, or cultured for 30 minutes without addition of both insulin and a proepithelin protein, to prepare an adipocyte not stimulated with insulin (−Insulin). When the proepithelin protein was added, concentrations of the proepithelin protein were set at 50 nM, 100 nM, and 200 nM.
For each of the adipocyte stimulated by insulin (+100 nM Insulin) and the adipocyte not stimulated by insulin (−Insulin) obtained in the manner as described above, protein extraction and Western blotting were conducted in the same manner as in Example 6.

In the case of `C[C@@H]1C[C@H]2[C@@H]3CCC4=CC(=O)C=C[C@]4(C)[C@@]3(F)[C@@H](O)C[C@]2(C)[C@@]1(O)C(=O)CO` [dexamethazone], the “relative intensity of proepithelin (aa297-309) NBS-labeled peptide, insulin resistance adipocyte relative to normal adipocyte” value in the experiment with proepithelin (aa297-309) was found to be 3.01 times. For the same molecule, in the experiment on proepithelin protein, the “expression amount of proepithelin protein relative to GADPH, increase versus control” value stood at 1.95 times.

Turning to tumor necrosis factor α [TNFα], the “relative intensity of proepithelin (aa297-309) NBS-labeled peptide, insulin resistance adipocyte relative to normal adipocyte” value with proepithelin (aa297-309) stood at 1.66 times. Further, the “expression amount of proepithelin protein relative to GADPH, increase versus control” value with proepithelin protein is reported as 1.83 times. The “upregulation of proepithelin protein with varied inducer concentration” value with proepithelin protein (concentrations of TNFα (ng/ml) and dexamethazone (nM) changed, FIG. 3) was “dependent on the concentration”.

B1: proepithelin protein: epithelin precursor protein having seven kinds of epithelin domains; purchased from AdipoGen, Inc. (protein)
chain: MWTLVSWVALTAGLVAGTRCPDGQFCPVACCLDPGGASYSCCRPLLDKWPTTLSRHLGGPCQVDAHCSAGHSCIFTVSGTSSCCPFPEAVACGDGHHCCPRGFHCSADGRSCFQRSGNNSVGAIQCPDSQFECPDFSTCCVMVDGSWGCCPMPQASCCEDRVHCCPHGAFCDLVHTRCITPTGTHPLAKKLPAQRTNRAVALSSSVMCPDARSRCPDGSTCCELPSGKYGCCPMPNATCCSDHLHCCPQDTVCDLIQSKCLSKENATTDLLTKLPAHTVGDVKCDMEVSCPDGYTCCRLQSGAWGCCPFTQAVCCEDHIHCCPAGFTCDTQKGTCEQGPHQVPWMEKAPAHLSLPDPQALKRDVPCDNVSSCPSSDTCCQLTSGEWGCCPIPEAVCCSDHQHCCPQGYTCVAEGQCQRGSEIVAGLEKMPARRASLSHPRDIGCDQHTSCPVGQTCCPSLGGSWACCQLPHAVCCEDRQHCCPAGYTCNVKARSCEKEVVSAQPATFLARSPHVGVKDVECGEGHFCHDNQTCCRDNRQGWACCPYRQGVCCADRRHCCPAGFRCAARGTKCLRREAPRWDAPLRDPALRQLL
modifications: human
Turning to B1, in the experiment on pAkt-Ser473, the “phosphorylation level at 473th serine in the Akt protein” value is “increased with the concentration of added proepithelin”. The “phosphorylation level of an Akt protein after preliminary treatment” value with phosphorylated Akt is reported as “decreased”.
